Key:
Aβ levels in the brain = assay: Dietary cholesterol and Aβ levels in rat cerebral cortex; type: in vivo; conditions: 20 month old rats, high cholesterol diet (5% cholesterol) vs low cholesterol diet (0.1% cholesterol), 10 weeks
Method: These experiments were performed on 20 month old rats. The rats were fed a low cholesterol diet (0.1% cholesterol) or a high cholesterol diet (5% cholesterol). After 10 weeks, the animals were sacrificed and the cortex was removed for measurement of Aβ levels. Aβ was assayed by immunoprecipitating cortical homogenates with the Aβ antibody B12, followed by Western blotting with the commercially available Aβ monoclonal antibody 4G8.

[1] = tested on: Aβ production by human cortical neurons; assay: Effect of HMG CoA reductase inhibitors on Aβ levels in human cortical neuronal cultures; type: cell-based; conditions: 100 μM, 48 hours
Method: Busciglio et al., (1993) Proc. Nat. Acad. Sci. 90, 2092-2096, described the production of Aβ by human cortical neurons in culture . To determine whether cholesterol can affect the production of Aβ, primary human brain cultures were established from the cortex of 16-20 week fetal abortuses, and the neurons incubated in the absence or presence of very low density lipoprotein (VLDL), low density lipoprotein (LDL) or high density lipoprotein (HDL) particles isolated from human plasma. These lipoprotein particles are the physiological vehicles for the transport of cholesterol to cells. The effects of the different lipoprotein particles on the levels of Aβ in the human cortical cultures was determined. The human cortical cultures were maintained in serum-free Dulbecco's Modified Eagle's Medium (DMEM) with N2 supplements (a serum-free supplement that supports neuronal viability). The medium was then changed to the same medium (controls) or medium supplemented with VLDL, LDL, or HDL particles. After incubation for 48-72 hours, Aβ was measured by immunoprecipitation of the culture medium with a polyclonal antibody to Aβ (B12), followed by Western blotting with a mohoclonal antibody to Aβ (6E10). […] The bands corresponding to the 40 and 42 amino acid form of Aβ were analyzed quantitatively using a computer software program. […]

| levels of Aβ relative to controls [1] | SMILES | increase in Aβ levels in rat cerebral cortex (Aβ levels in the brain) |
| --- | --- | --- |
| – | CC(C)CCC[C@@H](C)[C@H]1CC[C@H]2[C@@H]3CC=C4C[C@@H](O)CC[C@]4(C)[C@H]3CC[C@]12C [cholesterol] | about 50% |
| significantly decreased levels of Aβ | CC[C@H](C)C(=O)O[C@H]1C[C@@H](C)C=C2C=C[C@H](C)[C@H](CC[C@@H]3C[C@@H](O)CC(=O)O3)[C@H]21 [lovastatin] | – |
